The values that follow come from patent publication US5637731A (priority 1996, dated 1997).

The target of assay [1] is muscarinic cholinergic receptor. It is filed as binding, rat. As to conditions: rat cerebral cortex, ^3 H-QNB 0.25 nM, 25° C., 120 minutes, pH 7.4.
For assay [2] the target is unchanged. Description: [^3 H]-Cis-methyldioxolane (^3 H-CD) Binding Assay (High Affinity). As to conditions: rat cerebral cortex, ^3 H-CD 1.0 nM, 25° C., 120 minutes, pH 7.4; high affinity agonist binding.

Where “and” joins values, the source holds several entries; their conditions need not be identical. Equal values may be shown once. Where a name gives a salt, the structure may show the parent alone. Read-outs that look alike come from different tables or passages of the source.

`CC(C)C(=O)O[C@H]1CCN(CC#CCN2CCCC2)C1=O` [(S)-2-Methylpropanoic acid 2-oxo-1-[4-(1-pyrrolidinyl)-2-butynyl]-3-pyrrolidinyl ester]: the Ki (usually the dissociation constant of the complex between target and ligand, obtained from inhibition or displacement) in assay [1] came to 7.2 µM; in assay [2] it was 0.162 µM.
For `CCN(CC)CC#CCN1CC[C@H](O[Si](C)(C)C(C)(C)C)C1=O` [(S)-1-[4-(diethylamino)-2-butynyl]-3-[[(1,1-dimethylethyl)dimethylsily]oxy]-2-pyrrolidinone], the Ki in assay [1] stood at 7.6 µM; in assay [2], 15.4 µM.
For the molecule `CC(=O)O[C@H]1CCN(CC#CCN(C)CCO)C1=O` [(S)-3-(Acetyloxy)-1-[4-[2-(hydroxyethyl)methylamino]-2-butynyl]-2-pyrrolidinone], the results for the inhibition constant (Ki) in assay [1] and in assay [2] were over 100 µM and 16.2 µM, respectively.
For the molecule `CCCCCCCCCC(=O)O[C@@H]1CCN(CC#CCN(C)C)C1=O` [(R)-Decanoic acid 1-[4-(dimethylamino)-2-butynyl]-2-oxo-3-pyrrolidinyl ester], the Ki in assay [1] is over 100 µM; in assay [2] it was 0.73 µM.
As for `CN(C)CC#CCN1CCC(C)(O)C1=O` (racemic) [Racemic-1-[4-Dimethylamino)-2-butynyl]-3-hydroxy-3-methyl-2-pyrrolidinone, Racemic 1-[4-(Dimethylamino)-2-butynyl]-3-hydroxy-3-methyl-2-pyrrolidinone], the Ki in assay [1] and in assay [2] was over 100 µM throughout.
`O=C1[C@@H](O)CCN1CC#CCN1CCCC1` [(S)-3-Hydroxy-1-[4-(1-pyrrolidinyl)-2-butynyl]-2-pyrrolidinone]: the inhibitory constant (Ki) worked out at 1.7 µM in assay [1] and 0.007 µM in assay [2].
For `CC(C)C(=O)O[C@H]1CCN(CC#CC[N+](C)(C)C)C1=O` [(S)-N,N, N-Trimethyl-4-[3-(2-methyl-1-oxopropoxy)-2-oxo-1-pyrrolidinyl]-2-butyn-1-aminium iodide], in that order: 64.3 µM and 6.96 µM.
For `COC(=O)O[C@@H]1CCN(CC#CCN(C)C)C1=O` [(R)-Carbonic acid 1-[4-(dimethylamino)-2-butynyl]-2-oxo-3-pyrrolidinyl methyl ester monohydrochloride], in that order: 52 µM and 3.07 µM.
As to `CCCCCCCCOC(=O)O[C@@H]1CCN(CC#CCN2CCCC2)C1=O` [(R)-Carbonic acid octyl 2-oxo-1-[4-(1-pyrrolidinyl)-2-butynyl]-3-pyrrolidinyl ester], the inhibitory constant (Ki) in assay [1] came to 0.1 µM; in assay [2], 0.076 µM.
For `CC1CCN(CC#CCN2CCCC2CO[Si](C)(C)C(C)(C)C)C1=O` (stereo not drawn) [[R-[(R*,R* and R*,S*)]]-1-[4-[2-[[[(1,1-dimethylethyl)dimethylsilyl]oxy]methyl]-1-pyrrolidinyl]-2-butynyl]-3-methyl-2-pyrrolidinone], the results for the inhibitory constant (Ki) in assay [1] and in assay [2] were 2.5 µM and 5.6 µM, respectively.
As to `CN(C)CC#CCN1CC[C@@H](N)C1=O` [(R)-3-Amino-1-[4-(dimethylamino)-2-butynyl]-2-pyrrolidinone dihydrochloride], the results for the Ki in assay [1] and in assay [2] were over 100 µM and 0.89 µM, respectively.
With `CS[C@@H]1CCN(CC#CCN2CCCC2)C1=O` [(R)-3-(Methylthio)-1-[4-(1-pyrrolidinyl)-2-butynyl]-2-pyrrolidinone], the Ki in assay [1] amounted to 3.6 µM; in assay [2] it was 1.4 µM.
For the molecule `C[C@H]1CCN(CC#CCN(C)C)C1=O` [(S)-1-[4-(Dimethylamino)-2-butynyl]-3-methyl-2-pyrrolidinone], the results for the Ki in assay [1] and in assay [2] were 35.5 µM and 0.68 µM, respectively.
For `N[C@@H]1CCN(CC#CCN2CCCC2)C1=O` [(R)-3-Amino-1-[4-(1-pyrrolidinyl)-2-butynyl]-2-pyrrolidinone dihydrochloride], the values for the inhibition constant (Ki) in assay [1] and in assay [2] were 6.1 µM and 0.35 µM, respectively.
Take `CCCCCCCCNC(=O)O[C@@H]1CCN(CC#CCN2CCCC2)C1=O` [(R)-Octylcarbamic acid 2-oxo-1-[4-(1-pyrrolidinyl)-2-butynyl]-3-pyrrolidinyl ester]: the inhibitory constant (Ki) is 0.2 µM in assay [1] and 0.24 µM in assay [2].
The like results for `CCN(CC)CC#CCNC(=O)C(F)(F)F` [N-[4-(Diethylamino)-2-butynyl]-2,2,2-trifluoroacetamide monohydrochloride] were, in that order, over 100 µM and 4.07 µM.
For `CC(C)(C)C(=O)O[C@@H]1CCN(CC#CC[N+](C)(C)C)C1=O` [(R)-3-[3-(2,2-Dimethyl-1-oxopropoxy)-2-oxo-1-pyrrolidinyl]-N,N, N-trimethyl-2-butyn-1-aminium iodide], the values for the Ki in assay [1] and in assay [2] were over 100 µM and 1.22 µM, respectively.
Take `CN(C)CC#CCN1CC[C@@H](O)C1=O` [(R)-1-[4-Dimethylamino)-2-butynyl-3-hydroxy-2-pyrrolidinone]: the Ki was 105 µM in assay [1] and 0.54 µM in assay [2].
As for `CN(C)CC#CCN1CC[C@H](OC(=O)C(C)(C)C)C1=O` [(S)-2,2-Dimethylpropanoic acid 1-[4-(dimethylamino)-2-butynyl]-2-oxo-3-pyrrolidinyl ester], the Ki in assay [1] amounted to 484 µM; in assay [2], 38.8 µM.
For `CC(C)(C)[Si](C)(C)O[C@@H]1CCN(CC#CCN2CCC2)C1=O` [(R)-1-[4-(1-Azetidinyl)-2-butynyl]-3-[[(1,1-dimethylethyl)dimethylsilyl]oxy]-2-pyrrolidinone], the inhibition constant (Ki) in assay [1] and in assay [2] was over 100 µM in each case.
On to `CS[C@@H]1CCN(CC#CCN(C)C)C1=O` [(R)-1-[4-(Dimethylamino)-2-butynyl]-3-(methylthio)-2-pyrrolidinone], for which the inhibitory constant (Ki) in assay [1] is 108 µM; in assay [2], 6.1 µM.
Regarding `CN(C)CC#CCN1CC[C@H](N)C1=O` [(S)-3-Amino-1-[4-(dimethylamino)-2-butynyl]-2-pyrrolidinone dihydrochloride], the values for the Ki in assay [1] and in assay [2] were over 100 µM and 2.6 µM, respectively.
`CC(C)(C)[Si](C)(C)OC[C@@H]1CCCN1CC#CCNC(=O)C(F)(F)F` [(S)-N-[4-[2-[[[(1,1-Dimethylethyl]-dimethylsilyl]oxy]-methyl]-1-pyrrolidinyl]-2-butynyl]-2,2,2-trifluoroacetamide]: the inhibition constant Ki was over 100 µM in assay [1] and 41.4 µM in assay [2].
In assay [1], `CC(C)C(=O)O[C@H]1CCN(CC#CCN(C)C)C1=O` [(S)-2-Methylpropanoic acid 1-[4-(dimethylamino)-2-butynyl]-2-oxo-3-pyrrolidinyl ester] came in with an inhibitory constant (Ki) of 610 µM.
Regarding `O=C1[C@@H](O)CCN1CC#CCn1ccnc1` [(S)-3-Hydroxy-1-[4(1H-imidazol-1-yl)-2-butynyl]-2-pyrrolidinone], the results for the inhibitory constant (Ki) in assay [1] and in assay [2] were over 100 µM and 0.12 µM, respectively.
`CCCCCCCCCC(=O)O[C@H]1CCN(CC#CC[N+](C)(C)C)C1=O` [(S)-N,N, N-Trimethyl-4-[2-oxo-3-[(1-oxodecyl)oxy]-1-pyrrolidinyl-2-butyn-1-aminium iodide]: the inhibition constant Ki in assay [1] turned out to be 0.003 µM; in assay [2] it was 0.156 µM.
Turning to `CN(C)CC#CCN1CC[C@@H](OC(=O)C(C)(C)C)C1=O` [(R)-2,2-Dimethylpropanoic acid 1-[4-(dimethylamino)-2-butynyl]-2-oxo-3-pyrrolidinyl ester], in assay [1], the affinity, expressed as Ki, was 404 µM.
On to `COC(=O)O[C@H]1CCN(CC#CCN2CCCC2)C1=O` [(S)-Carbonic acid methyl 2-oxo-1-[4-(1-pyrrolidinyl)-2-butynyl]-3-pyrrolidinyl ester], for which the inhibitory constant (Ki) in assay [1] was 5.4 µM and 10.4 µM.
